Results: patent US6355799B1, “Substituted benzene compounds, process for their preparation, and herbicidal and defoliant compositions containing them” (ISK Americas Incorporated, priority 1997, dated 2002)

How the values were obtained:
Assay type in all cases: in vivo
[1] = test system: johnsongrass (Sorghum halepense, SORHA); experiment: Post-emerge test, greenhouse herbicide activity screening
In short: (§1)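 Compounds in acetone were track-sprayed at 15–1000 g ai/ha: pre-emergence onto soil sown the previous day, then top-watered to incorporate and later bottom-watered; post-emergence onto 2–3 leaf plants with 0.25% v/v surfactant, bottom-watered only. Ratings on a 0–100 phytotoxicity scale were taken at day 14.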

[2] = test system: redroot pigweed (Amaranthus retroflexus, AMARE); experiment: as above
In short: as §1

[3] = test system: velvetleaf (Abutilon theophrasti, ABUTH); experiment: as above
In short: as §1

[4] = test system: green foxtail (Setaria viridis, SETVI); experiment: as above
In short: as §1

[5] = test system: lambsquarters (Chenopodium album, CHEAL); experiment: as above
In short: as §1

[6] = test system: ivyleaf morningglory (Ipomoea hederacea, IPOHE); experiment: as above
In short: as §1

[7] = test system: large crabgrass (Digitaria sanguinalis, DIGSA); experiment: as above
In short: as §1

[8] = test system: sicklepod (Cassia obtusifolia, CASOB); experiment: as above
In short: as §1

[9] = test system: barnyardgrass (Echinochloa crus-galli, ECHCG); experiment: as above
In short: as §1

[10] = test system: johnsongrass (Sorghum halepense, SORHA); experiment: Pre-emerge test, greenhouse herbicide activity screening; conditions: rating scale 0-100, 14 days after application
In short: (§2)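 Sandy loam pots; pre-emerge: sown 1 d pre-spray, surface-watered after, then bottom-watered. Post-emerge: sown 8–21 d before, 2–3 leaf stage, + 0.25% v/v NIS, bottom-watered. Acetone, 187 l/ha track spray, 15–1000 g ai/ha. 0–100 injury score, day 14.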

[11] = test system: velvetleaf (Abutilon theophrasti, ABUTH); experiment: as above; conditions: rating scale 0-100, 14 days after application
In short: as §2

[12] = test system: green foxtail (Setaria viridis, SETVI); experiment: as above; conditions: rating scale 0-100, 14 days after application
In short: as §2

[13] = test system: lambsquarters (Chenopodium album, CHEAL); experiment: as above; conditions: rating scale 0-100, 14 days after application
In short: as §2

[14] = test system: ivyleaf morningglory (Ipomoea hederacea, IPOHE); experiment: as above; conditions: rating scale 0-100, 14 days after application
In short: as §2

[15] = test system: common ragweed (Ambrosia artemisizfolia L., AMBEL); experiment: as above; conditions: rating scale 0-100, 14 days after application
In short: as §2

[16] = test system: large crabgrass (Digitaria sanguinalis, DIGSA); experiment: as above; conditions: rating scale 0-100, 14 days after application
In short: as §2

[17] = test system: sicklepod (Cassia obtusifolia, CASOB); experiment: as above; conditions: rating scale 0-100, 14 days after application
In short: as §2

[18] = test system: barnyardgrass (Echinochloa crus-galli, ECHCG); experiment: as above; conditions: rating scale 0-100, 14 days after application
In short: as §2

[19] = test system: redroot pigweed (Amaranthus retroflexus, AMARE); experiment: as above; conditions: rating scale 0-100, 14 days after application
In short: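 Visual ratings on a 0-100 scale (0 no damage, 100 all plants dead) were taken at 14 days after treatment. Rates of 15-1000 g ai/ha in acetone, 187 l/ha, were sprayed onto soil one day after planting (pre-emerge) or onto 2-3 leaf plants with 0.25% v/v surfactant (post-emerge).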

[20] = Rate 250 g ai/ha, rating scale 0-100 (0 no damage, 100 complete death), 14 days after application

For `O=C(Nc1cc(Cl)ccc1N1C(=O)c2ccccc2C1=O)c1ccc2ccccc2c1` [Compound 13-5, N-[4-chloro-2-(2-naphthoylamino)phenyl]phthalimide], the “Post-emerge Herbicidal Activity, phytotoxicity rating SORHA” value [1, 20] was 0, the pest or weed control at 63 g/ha ([1]; Sorghum halepense, post-emergence, 336 h, post-emerge, 63 g ai/ha, phytotoxicity rating 0-100 at 14 days after application, read-out: Post-emerge Herbicidal Activity SORHA) was 0% and the pest or weed control at 63 g/ha ([2]; Amaranthus retroflexus, post-emergence, 336 h, post-emerge, 63 g ai/ha, phytotoxicity rating 0-100 at 14 days after application, read-out: Post-emerge Herbicidal Activity AMARE) was 70%. For the same compound, the “Post-emerge Herbicidal Activity, phytotoxicity rating AMARE” value [2, 20] was 75, the pest or weed control at 63 g/ha ([3]; Abutilon theophrasti, post-emergence, 336 h, post-emerge, 63 g ai/ha, phytotoxicity rating 0-100 at 14 days after application, read-out: Post-emerge Herbicidal Activity ABUTH) was 70% and the “Post-emerge Herbicidal Activity, phytotoxicity rating ABUTH” value [3, 20] was 70. For the same compound, the “Post-emerge Herbicidal Activity, phytotoxicity rating SETVI” value [4, 20] was 10, the pest or weed control at 63 g/ha ([4]; Setaria viridis, post-emergence, 336 h, post-emerge, 63 g ai/ha, phytotoxicity rating 0-100 at 14 days after application, read-out: Post-emerge Herbicidal Activity SETVI) was 0% and the pest or weed control at 63 g/ha ([5]; Chenopodium album, post-emergence, 336 h, post-emerge, 63 g ai/ha, phytotoxicity rating 0-100 at 14 days after application, read-out: Post-emerge Herbicidal Activity CHEAL) was 95%. For the same compound, the “Post-emerge Herbicidal Activity, phytotoxicity rating CHEAL” value [5, 20] was 90, the pest or weed control at 63 g/ha ([6]; Ipomoea, post-emergence, 336 h, post-emerge, 63 g ai/ha, phytotoxicity rating 0-100 at 14 days after application, read-out: Post-emerge Herbicidal Activity IPOHE) was 50% and the “Post-emerge Herbicidal Activity, phytotoxicity rating IPOHE” value [6, 20] was 60. For the same compound, the pest or weed control at 63 g/ha ([7]; Digitaria sanguinalis, post-emergence, 336 h, post-emerge, 63 g ai/ha, phytotoxicity rating 0-100 at 14 days after application, read-out: Post-emerge Herbicidal Activity DIGSA) was 0%, the “Post-emerge Herbicidal Activity, phytotoxicity rating DIGSA” value [7, 20] was 20 and the “Post-emerge Herbicidal Activity, phytotoxicity rating CASOB” value [8, 20] was 30. For the same compound, the pest or weed control at 63 g/ha ([8]; Senna obtusifolia, post-emergence, 336 h, post-emerge, 63 g ai/ha, phytotoxicity rating 0-100 at 14 days after application, read-out: Post-emerge Herbicidal Activity CASOB) was 40%, the pest or weed control at 63 g/ha ([9]; Echinochloa crus-galli, post-emergence, 336 h, post-emerge, 63 g ai/ha, phytotoxicity rating 0-100 at 14 days after application, read-out: Post-emerge Herbicidal Activity ECHCG) was 0% and the “Post-emerge Herbicidal Activity, phytotoxicity rating ECHCG” value [9, 20] was 0. For the same compound, the “Pre-emerge herbicidal activity, phytotoxicity rating SORHA” value ([10]; 63 g ai/ha) was 0, the “Pre-emerge herbicidal activity, phytotoxicity rating SORHA” value ([10]; 250 g ai/ha) was 30 and the “Pre-emerge herbicidal activity, phytotoxicity rating ABUTH” value ([11]; 63 g ai/ha) was 0. The “Pre-emerge herbicidal activity, phytotoxicity rating ABUTH” value ([11]; 250 g ai/ha) was 0, the “Pre-emerge herbicidal activity, phytotoxicity rating SETVI” value ([12]; 63 g ai/ha) was 30 and the “Pre-emerge herbicidal activity, phytotoxicity rating SETVI” value ([12]; 250 g ai/ha) was 50. The “Pre-emerge herbicidal activity, phytotoxicity rating CHEAL” value ([13]; 63 g ai/ha) was 20, the “Pre-emerge herbicidal activity, phytotoxicity rating CHEAL” value ([13]; 250 g ai/ha) was 50 and the “Pre-emerge herbicidal activity, phytotoxicity rating IPOHE” value ([14]; 63 g ai/ha) was 0. The “Pre-emerge herbicidal activity, phytotoxicity rating IPOHE” value ([14]; 250 g ai/ha) was 0, the “Pre-emerge herbicidal activity, phytotoxicity rating AMBEL” value ([15]; 63 g ai/ha) was 0 and the “Pre-emerge herbicidal activity, phytotoxicity rating AMBEL” value ([15]; 250 g ai/ha) was 0. For the same compound, the “Pre-emerge herbicidal activity, phytotoxicity rating DIGSA” value ([16]; 63 g ai/ha) was 0, the “Pre-emerge herbicidal activity, phytotoxicity rating DIGSA” value ([16]; 250 g ai/ha) was 10 and the “Pre-emerge herbicidal activity, phytotoxicity rating CASOB” value ([17]; 63 g ai/ha) was 0. For the same compound, the “Pre-emerge herbicidal activity, phytotoxicity rating CASOB” value ([17]; 250 g ai/ha) was 0, the “Pre-emerge herbicidal activity, phytotoxicity rating ECHCG” value ([18]; 63 g ai/ha) was 0 and the “Pre-emerge herbicidal activity, phytotoxicity rating ECHCG” value ([18]; 250 g ai/ha) was 0. The “Pre-emerge herbicidal activity, phytotoxicity rating AMARE” value ([19]; 63 g ai/ha) was 30 and the “Pre-emerge herbicidal activity, phytotoxicity rating AMARE” value ([19]; 250 g ai/ha) was 95.
